Assays:
[1] = as a function of the treatment time interval; Fig. 18

CC[C@H](C)[C@H](NC(=O)[C@H](Cc1ccc(O)cc1)NC(=O)[C@@H](NC(=O)[C@H](CCCNC(=N)N)NC(=O)[C@@H](N)CC(=O)O)C(C)C)C(=O)N[C@@H](Cc1c[nH]cn1)C(=O)N1CCC[C@H]1C(=O)O [Angiotensin-(1-7), Asp-Arg-Val-Tyr-Ile-His-Pro]
averaged Angiotensin-(1-7) levels [1]: does not result in increased Ang-(1-7) levels | side-effects in the clinical trial (5 to 25 mcg/kg/24h range as stated): very safe without severe Ang-(1-7)-related side-effects | hypotension as side-effect (Ang-(1-7) administration in the defined concentration range): not a side-effect | averaged blood pressure (SBP, MAP, DBP) (at 11 am and 11 pm as a function of ICU days with infusion, Fig. 10, 11): not significantly influenced | averaged heart rate (at 11 am and 11 pm as a function of ICU days with infusion, Fig. 14, 15): not influences | average temperatures (at 11 am during infusion, Fig. 16): not significantly influenced
